Assay results published in ChEMBL document CHEMBL1132968, “Substituent effects on the antibacterial activity of nitrogen-carbon-linked (azolylphenyl)oxazolidinones with expanded activity against the fastidious gram-negative organisms Haemophilus influenzae and Moraxella catarrhalis” (2000).
Converted amounts (≈) assume the structure as drawn.

Assays:
Type in all cases: functional
Enterococcus faecalis = experiment: Inhibitory activity against Enterococcus faecalis UC9217
Streptococcus pneumoniae = experiment: Inhibitory activity against Streptococcus pneumoniae UC9912
Moraxella catarrhalis = experiment: Inhibitory activity against Moraxella catarrhalis UC30610
Staphylococcus aureus [1] = experiment: Inhibitory activity against Methicillin-susceptible Staphylococcus aureus UC9213
[2] = tested on: Staphylococcus epidermidis; experiment: Inhibitory activity against Methicillin-resistant Staphylococcus epidermidis UC12084
Haemophilus influenzae = experiment: Inhibitory activity against Haemophilus influenzae UC30063
Staphylococcus aureus [3] = experiment: Inhibitory activity against Methicillin-resistant Staphylococcus aureus UC6685

With `CC(=O)NC[C@H]1CN(c2ccc(-n3ccc(NS(C)(=O)=O)n3)c(F)c2)C(=O)O1` the MIC (Enterococcus faecalis) was > 16 µg/mL, the MIC (Streptococcus pneumoniae) was 4 µg/mL (≈ 9.72 µM) and the MIC (Moraxella catarrhalis) was > 16 µg/mL. The MIC (Staphylococcus aureus [1]) was > 16 µg/mL, the MIC [2] was 4 µg/mL (≈ 9.72 µM) and the MIC (Haemophilus influenzae) was > 16 µg/mL.

`CC(=O)NC[C@H]1CN(c2ccc(-n3ncnn3)c(F)c2)C(=O)O1` gave an MIC (Enterococcus faecalis) of 1 µg/mL (≈ 3.12 µM), an MIC (Streptococcus pneumoniae) of 0.5 µg/mL (≈ 1.56 µM) and an MIC (Staphylococcus aureus [3]) of 2 µg/mL (≈ 6.24 µM). For the same compound, the MIC (Moraxella catarrhalis) was 8 µg/mL (≈ 25 µM), the MIC (Staphylococcus aureus [1]) was 2 µg/mL (≈ 6.24 µM) and the MIC [2] was 1 µg/mL (≈ 3.12 µM). For the same compound, the MIC (Haemophilus influenzae) was 8 µg/mL (≈ 25 µM).

In the case of `CC(=O)NC[C@H]1CN(c2ccc(-n3cc(C#C[Si](C)(C)C)cn3)c(F)c2)C(=O)O1`, the MIC (Enterococcus faecalis) is reported as 8 µg/mL (≈ 19.3 µM), the MIC (Streptococcus pneumoniae) is reported as 2 µg/mL (≈ 4.82 µM) and the MIC (Staphylococcus aureus [3]) is reported as 4 µg/mL (≈ 9.65 µM). For the same compound, the MIC (Moraxella catarrhalis) was > 16 µg/mL, the MIC (Staphylococcus aureus [1]) was 4 µg/mL (≈ 9.65 µM) and the MIC [2] was 2 µg/mL (≈ 4.82 µM). For the same compound, the MIC (Haemophilus influenzae) was > 16 µg/mL.

Compound `CC(=O)NC[C@H]1CN(c2ccc(-n3ccc(CCCO)c3)c(F)c2)C(=O)O1` has an MIC (Enterococcus faecalis) of 2 µg/mL (≈ 5.33 µM), an MIC (Streptococcus pneumoniae) of 0.5 µg/mL (≈ 1.33 µM) and an MIC (Staphylococcus aureus [3]) of 4 µg/mL (≈ 10.7 µM). It also gave an MIC (Moraxella catarrhalis) of 8 µg/mL (≈ 21.3 µM), an MIC (Staphylococcus aureus [1]) of 4 µg/mL (≈ 10.7 µM) and an MIC [2] of 1 µg/mL (≈ 2.66 µM). For the same compound, the MIC (Haemophilus influenzae) was > 16 µg/mL.

Compound `CC(=O)NC[C@H]1CN(c2ccc(-n3ccc(C)n3)c(F)c2)C(=O)O1` has an MIC (Enterococcus faecalis) of 4 µg/mL (≈ 12 µM), an MIC (Streptococcus pneumoniae) of 1 µg/mL (≈ 3.01 µM) and an MIC (Staphylococcus aureus [3]) of 4 µg/mL (≈ 12 µM). It also gave an MIC (Moraxella catarrhalis) of 16 µg/mL (≈ 48.1 µM), an MIC (Staphylococcus aureus [1]) of 4 µg/mL (≈ 12 µM) and an MIC [2] of 1 µg/mL (≈ 3.01 µM). For the same compound, the MIC (Haemophilus influenzae) was > 16 µg/mL.

`CC(=O)NC[C@H]1CN(c2ccc(-n3nnc(/C=N/O)n3)c(F)c2)C(=O)O1` showed an MIC (Enterococcus faecalis) of 4 µg/mL (≈ 11 µM), an MIC (Streptococcus pneumoniae) of 0.5 µg/mL (≈ 1.38 µM) and an MIC (Staphylococcus aureus [3]) of 4 µg/mL (≈ 11 µM). The MIC (Moraxella catarrhalis) was 8 µg/mL (≈ 22 µM), the MIC (Staphylococcus aureus [1]) was 4 µg/mL (≈ 11 µM) and the MIC [2] was 1 µg/mL (≈ 2.75 µM). The MIC (Haemophilus influenzae) was 16 µg/mL (≈ 44 µM).

Work on `CC(=O)NC[C@H]1CN(c2ccc(-n3ccc(NC(=O)CO)n3)c(F)c2)C(=O)O1` yielded an MIC (Enterococcus faecalis) of 8 µg/mL (≈ 20.4 µM), an MIC (Streptococcus pneumoniae) of 1 µg/mL (≈ 2.56 µM) and an MIC (Staphylococcus aureus [3]) of 16 µg/mL (≈ 40.9 µM). The MIC (Moraxella catarrhalis) was > 16 µg/mL, the MIC (Staphylococcus aureus [1]) was 16 µg/mL (≈ 40.9 µM) and the MIC [2] was 4 µg/mL (≈ 10.2 µM). The MIC (Haemophilus influenzae) was > 16 µg/mL.

`CC(=O)NC[C@H]1CN(c2ccc(-n3ccc(C#N)n3)c(F)c2)C(=O)O1` gave an MIC (Enterococcus faecalis) of 2 µg/mL (≈ 5.83 µM), an MIC (Streptococcus pneumoniae) of 0.5 µg/mL (≈ 1.46 µM) and an MIC (Staphylococcus aureus [3]) of 1 µg/mL (≈ 2.91 µM). It also gave an MIC (Moraxella catarrhalis) of 8 µg/mL (≈ 23.3 µM), an MIC (Staphylococcus aureus [1]) of 1 µg/mL (≈ 2.91 µM) and an MIC [2] of 0.5 µg/mL (≈ 1.46 µM). The MIC (Haemophilus influenzae) was 16 µg/mL (≈ 46.6 µM).

`CC(=O)NC[C@H]1CN(c2ccc(-n3ccc(C(N)=O)c3)c(F)c2)C(=O)O1` showed an MIC (Enterococcus faecalis) of 4 µg/mL (≈ 11.1 µM), an MIC (Streptococcus pneumoniae) of 0.25 µg/mL (≈ 0.694 µM) and an MIC (Staphylococcus aureus [3]) of 8 µg/mL (≈ 22.2 µM). The MIC (Moraxella catarrhalis) was > 16 µg/mL, the MIC (Staphylococcus aureus [1]) was 16 µg/mL (≈ 44.4 µM) and the MIC [2] was 1 µg/mL (≈ 2.78 µM). For the same compound, the MIC (Haemophilus influenzae) was > 16 µg/mL.

Work on `CC(=O)NC[C@H]1CN(c2ccc(-n3ccc(NC(=O)OC(C)(C)C)n3)c(F)c2)C(=O)O1` yielded an MIC (Enterococcus faecalis) of 2 µg/mL (≈ 4.61 µM), an MIC (Streptococcus pneumoniae) of 0.5 µg/mL (≈ 1.15 µM) and an MIC (Staphylococcus aureus [3]) of 2 µg/mL (≈ 4.61 µM). It also gave an MIC (Moraxella catarrhalis) of 8 µg/mL (≈ 18.5 µM), an MIC (Staphylococcus aureus [1]) of 4 µg/mL (≈ 9.23 µM) and an MIC [2] of 2 µg/mL (≈ 4.61 µM). For the same compound, the MIC (Haemophilus influenzae) was > 16 µg/mL.

In the case of `CC(=O)NC[C@H]1CN(c2ccc(-n3cc(/C=N/O)nn3)c(F)c2)C(=O)O1`, the MIC (Enterococcus faecalis) is reported as 8 µg/mL (≈ 22.1 µM), the MIC (Streptococcus pneumoniae) is reported as 0.5 µg/mL (≈ 1.38 µM) and the MIC (Staphylococcus aureus [3]) is reported as 2 µg/mL (≈ 5.52 µM). It also gave an MIC (Moraxella catarrhalis) of 8 µg/mL (≈ 22.1 µM), an MIC (Staphylococcus aureus [1]) of 8 µg/mL (≈ 22.1 µM) and an MIC [2] of 1 µg/mL (≈ 2.76 µM). The MIC (Haemophilus influenzae) was > 16 µg/mL.

Work on `CC(=O)NC[C@H]1CN(c2ccc(-n3nnc(C#N)n3)c(F)c2)C(=O)O1` yielded an MIC (Enterococcus faecalis) of 2 µg/mL (≈ 5.79 µM), an MIC (Streptococcus pneumoniae) of 0.5 µg/mL (≈ 1.45 µM) and an MIC (Staphylococcus aureus [3]) of 1 µg/mL (≈ 2.9 µM). The MIC (Moraxella catarrhalis) was 4 µg/mL (≈ 11.6 µM), the MIC (Staphylococcus aureus [1]) was 2 µg/mL (≈ 5.79 µM) and the MIC [2] was 0.5 µg/mL (≈ 1.45 µM). It also gave an MIC (Haemophilus influenzae) of 16 µg/mL (≈ 46.3 µM).

With `CC(=O)NC[C@H]1CN(c2ccc(-n3nnc(C=O)n3)c(F)c2)C(=O)O1` the MIC (Enterococcus faecalis) was 16 µg/mL (≈ 45.9 µM), the MIC (Streptococcus pneumoniae) was 1 µg/mL (≈ 2.87 µM) and the MIC (Staphylococcus aureus [3]) was 4 µg/mL (≈ 11.5 µM). The MIC (Moraxella catarrhalis) was 16 µg/mL (≈ 45.9 µM), the MIC (Staphylococcus aureus [1]) was 8 µg/mL (≈ 23 µM) and the MIC [2] was 2 µg/mL (≈ 5.74 µM). The MIC (Haemophilus influenzae) was 16 µg/mL (≈ 45.9 µM).

In the case of `CC(=O)NC[C@H]1CN(c2ccc(-n3cc(NC(=O)OC(C)(C)C)cn3)c(F)c2)C(=O)O1`, the MIC (Enterococcus faecalis) is reported as 8 µg/mL (≈ 18.5 µM), the MIC (Streptococcus pneumoniae) is reported as 1 µg/mL (≈ 2.31 µM) and the MIC (Staphylococcus aureus [3]) is reported as 4 µg/mL (≈ 9.23 µM). For the same compound, the MIC (Moraxella catarrhalis) was > 16 µg/mL, the MIC (Staphylococcus aureus [1]) was 8 µg/mL (≈ 18.5 µM) and the MIC [2] was 2 µg/mL (≈ 4.61 µM). The MIC (Haemophilus influenzae) was > 16 µg/mL.

`CC(=O)NC[C@H]1CN(c2ccc(-n3cc(NC(C)=O)cn3)c(F)c2)C(=O)O1` gave an MIC (Enterococcus faecalis) of 16 µg/mL (≈ 42.6 µM), an MIC (Streptococcus pneumoniae) of 1 µg/mL (≈ 2.66 µM) and an MIC (Staphylococcus aureus [3]) of 16 µg/mL (≈ 42.6 µM). The MIC (Moraxella catarrhalis) was > 16 µg/mL, the MIC (Staphylococcus aureus [1]) was > 16 µg/mL and the MIC [2] was 2 µg/mL (≈ 5.33 µM). The MIC (Haemophilus influenzae) was > 16 µg/mL.

For `CNC(=O)c1cnn(-c2ccc(N3C[C@H](CNC(C)=O)OC3=O)cc2F)c1`, the MIC (Enterococcus faecalis) was 16 µg/mL (≈ 42.6 µM), the MIC (Streptococcus pneumoniae) was 0.5 µg/mL (≈ 1.33 µM) and the MIC (Moraxella catarrhalis) was 16 µg/mL (≈ 42.6 µM). For the same compound, the MIC (Staphylococcus aureus [1]) was > 16 µg/mL, the MIC [2] was 2 µg/mL (≈ 5.33 µM) and the MIC (Haemophilus influenzae) was > 16 µg/mL.

`CC(=O)NC[C@H]1CN(c2ccc(-n3cc(CO)nn3)c(F)c2)C(=O)O1` showed an MIC (Enterococcus faecalis) of 2 µg/mL (≈ 5.73 µM), an MIC (Streptococcus pneumoniae) of 0.25 µg/mL (≈ 0.716 µM) and an MIC (Staphylococcus aureus [3]) of 4 µg/mL (≈ 11.5 µM). The MIC (Moraxella catarrhalis) was 2 µg/mL (≈ 5.73 µM), the MIC (Staphylococcus aureus [1]) was 4 µg/mL (≈ 11.5 µM) and the MIC [2] was 0.5 µg/mL (≈ 1.43 µM). For the same compound, the MIC (Haemophilus influenzae) was 4 µg/mL (≈ 11.5 µM).

With `C#Cc1cnn(-c2ccc(N3C[C@H](CNC(C)=O)OC3=O)cc2F)c1` the MIC (Enterococcus faecalis) was 2 µg/mL (≈ 5.84 µM), the MIC (Streptococcus pneumoniae) was 0.5 µg/mL (≈ 1.46 µM) and the MIC (Staphylococcus aureus [3]) was 2 µg/mL (≈ 5.84 µM). It also gave an MIC (Moraxella catarrhalis) of 8 µg/mL (≈ 23.4 µM), an MIC (Staphylococcus aureus [1]) of 2 µg/mL (≈ 5.84 µM) and an MIC [2] of 1 µg/mL (≈ 2.92 µM). The MIC (Haemophilus influenzae) was > 16 µg/mL.

Compound `CC(=O)NC[C@H]1CN(c2ccc(-n3ccc(=O)[nH]3)c(F)c2)C(=O)O1` has an MIC (Enterococcus faecalis) of 8 µg/mL (≈ 23.9 µM), an MIC (Streptococcus pneumoniae) of 1 µg/mL (≈ 2.99 µM) and an MIC (Staphylococcus aureus [3]) of 8 µg/mL (≈ 23.9 µM). It also gave an MIC (Moraxella catarrhalis) of 8 µg/mL (≈ 23.9 µM), an MIC (Staphylococcus aureus [1]) of 8 µg/mL (≈ 23.9 µM) and an MIC [2] of 1 µg/mL (≈ 2.99 µM). It also gave an MIC (Haemophilus influenzae) of 16 µg/mL (≈ 47.9 µM).

In the case of `CC(=O)NC[C@H]1CN(c2ccc(-n3cnc(C(N)=O)n3)c(F)c2)C(=O)O1`, the MIC (Enterococcus faecalis) is reported as > 16 µg/mL, the MIC (Streptococcus pneumoniae) is reported as 2 µg/mL (≈ 5.52 µM) and the MIC (Moraxella catarrhalis) is reported as 16 µg/mL (≈ 44.2 µM). The MIC (Staphylococcus aureus [1]) was > 16 µg/mL, the MIC [2] was 16 µg/mL (≈ 44.2 µM) and the MIC (Haemophilus influenzae) was > 16 µg/mL.
